Converted amounts (≈) assume the structure as drawn.
Assays:
[1] = test system: S. pyogenes (ATCC 51339); assay: Bacterial assay: MIC against S. pyogenes; assay type: cell-based, Streptococcus pyogenes; settings: Streptococcus pyogenes, ATCC51339, read-out: minimal inhibitory concentration (MIC)
[2] = test system: S. aureus (ATCC 29213); assay: Bacterial assay: MIC against S. aureus; assay type: cell-based, Staphylococcus aureus; settings: Staphylococcus aureus, ATCC29213, read-out: minimal inhibitory concentration (MIC)

SMILES	MIC [1] [µg/mL]	MIC [2] [µg/mL]
CCNC(=O)Nc1nc2cc(-c3cnc(C(C)(C)O)nc3)cc(-c3cccc(N4CCC(C)(C(=O)O)CC4)n3)c2s1 [Compound 51, 1-[6-[2-(ethylcarbamoylamino)-5-[2-(1-hydroxy-1-methyl-ethyl)pyrimidin-5-yl]-1,3-benzothiazol-7-yl]-2-pyridyl]-4-methyl-piperidine-4-carboxylic acid]	≤ 1	4 (≈ 6.95 µM)
CCNC(=O)Nc1nc2cc(-c3cnc(C(C)(C)O)nc3)cc(-c3ccnc(N4CCC(C)(C(=O)O)CC4)n3)c2s1 [Compound 52, 1-[4-[2-(ethylcarbamoylamino)-5-[2-(1-hydroxy-1-methyl-ethyl)pyrimidin-5-yl]-1,3-benzothiazol-7-yl]pyrimidin-2-yl]-4-methyl-piperidine-4-carboxylic acid]	≤ 1	2 (≈ 3.47 µM)
CCNC(=O)Nc1nc2cc(-c3cnc(C(C)(C)O)nc3)cc(-c3cc(NC4CCC(C)(C(=O)O)CC4)ccn3)c2s1 (stereo not shown) [Compound 54, 4-[[2-[2-(ethylcarbamoylamino)-5-[2-(1-hydroxy-1-methyl-ethyl)pyrimidin-5-yl]-1,3-benzothiazol-7-yl]-4-pyridyl]amino]-1-methyl-cyclohexanecarboxylic acid]	≤ 1	≤ 1
CCCNC(=O)Nc1nc2cc(-c3cnc(C(C)(C)O)nc3)cc(-c3ccccn3)c2s1 [Compound 57, 1-[5-[2-(1-hydroxy-1-methyl-ethyl)pyrimidin-5-yl]-7-(2-pyridyl)-1,3-benzothiazol-2-yl]-3-propyl-urea]	2 (≈ 4.46 µM)	≤ 1
CCNC(=O)Nc1nc2cc(-c3cnc(C(O)C(C)(C)C)nc3)cc(-c3ccccn3)c2s1 (stereo not shown) [Compound 60, 1-ethyl-3-[5-[2-(1-hydroxy-2,2-dimethyl-propyl)pyrimidin-5-yl]-7-(2-pyridyl)-1,3-benzothiazol-2-yl]urea]	≤ 1	≤ 1
CCNC(=O)Nc1nc2cc(-c3cnc(C(C)O)nc3)cc(-c3cc(CN4CC(O)C4)ccn3)c2s1 (stereo not shown) [Compound 65, 1-ethyl-3-[7-[4-[(3-hydroxyazetidin-1-yl)methyl]-2-pyridyl]-5-[2-(1-hydroxyethyl)pyrimidin-5-yl]-1,3-benzothiazol-2-yl]urea]	≤ 1	2 (≈ 3.96 µM)
CCNC(=O)Nc1nc2cc(-c3cnc(C(C)O)nc3)cc(-c3cc(CN4CC(C)(O)C4)ccn3)c2s1 (stereo not shown) [Compound 66, 1-ethyl-3-[5-[2-(1-hydroxyethyl)pyrimidin-5-yl]-7-[4-[(3-hydroxy-3-methyl-azetidin-1-yl)methyl]-2-pyridyl]-1,3-benzothiazol-2-yl]urea]	≤ 1	2 (≈ 3.85 µM)
CCNC(=O)Nc1nc2cc(-c3cnc(C(C)(C)O)nc3)cc(-c3cc(CN4CCC(C)(O)C4)ccn3)c2s1 (stereo not shown) [Compound 67, 1-ethyl-3-[5-[2-(1-hydroxy-1-methyl-ethyl)pyrimidin-5-yl]-7-[4-[(3-hydroxy-3-methyl-pyrrolidin-1-yl)methyl]-2-pyridyl]-1,3-benzothiazol-2-yl]urea]	≤ 1	≤ 1
CCNC(=O)Nc1nc2cc(-c3cnc(C(C)O)nc3)cc(-c3cc(CN4CCC[C@H]4C(=O)O)ccn3)c2s1 (stereo partly drawn) [Compound 72, (2S)-1-[[2-[2-(ethylcarbamoylamino)-5-[2-(1-hydroxyethyl)pyrimidin-5-yl]-1,3-benzothiazol-7-yl]-4-pyridyl]methyl]pyrrolidine-2-carboxylic acid]	8 (≈ 14.6 µM)	8 (≈ 14.6 µM)
CCNC(=O)Nc1nc2cc(-c3cnc(C(C)O)nc3)cc(-c3cc(CN4CC[C@@H](O)C4)ccn3)c2s1 (stereo partly drawn) [Compound 77, 1-ethyl-3-[5-[2-(1-hydroxyethyl)pyrimidin-5-yl]-7-[4-[[(3R)-3-hydroxypyrrolidin-1-yl]methyl]-2-pyridyl]-1,3-benzothiazol-2-yl]urea]	≤ 1	≤ 1
CCNC(=O)Nc1nc2cc(-c3cnc(C(C)(C)O)nc3)cc(-c3nccc(NCCOC)n3)c2s1 [Compound 78, 1-ethyl-3-[5-[2-(1-hydroxy-1-methyl-ethyl)pyrimidin-5-yl]-7-[4-(2-methoxyethylamino)pyrimidin-2-yl]-1,3-benzothiazol-2-yl]urea]	≤ 1	≤ 1
CCNC(=O)Nc1nc2cc(-c3cnc(C(C)O)nc3)cc(-c3cc(CN4CCC(C)(O)C4)ccn3)c2s1 (stereo not shown) [Compound 84, 1-ethyl-3-[5-[2-(1-hydroxyethyl)pyrimidin-5-yl]-7-[4-[(3-hydroxy-3-methyl-pyrrolidin-1-yl)methyl]-2-pyridyl]-1,3-benzothiazol-2-yl]urea]	≤ 1	≤ 1
CCNC(=O)Nc1nc2cc(-c3cnc(C(C)(C)O)nc3)cc(-c3nccc(NCCO)n3)c2s1 [Compound 85, 1-ethyl-3-[7-[4-(2-hydroxyethylamino)pyrimidin-2-yl]-5-[2-(1-hydroxy-1-methyl-ethyl)pyrimidin-5-yl]-1,3-benzothiazol-2-yl]urea]	≤ 1	2 (≈ 4.04 µM)
CCNC(=O)Nc1nc2cc(-c3cnc(C(C)(C)O)nc3)cc(-c3nccc(N4CC(C)(O)C4)n3)c2s1 [Compound 86, 1-ethyl-3-[7-[4-(3-hydroxy-3-methyl-azetidin-1-yl)pyrimidin-2-yl]-5-[2-(1-hydroxy-1-methyl-ethyl)pyrimidin-5-yl]-1,3-benzothiazol-2-yl]urea]	≤ 1	8 (≈ 15.4 µM)
CCNC(=O)Nc1nc2cc(-c3cnc(C(C)(C)OC(=O)N4CCN(C)CC4)nc3)cc(-c3ccccn3)c2s1 [Compound 89, [1-[5-[2-(ethylcarbamoylamino)-7-(2-pyridyl)-1,3-benzothiazol-5-yl]pyrimidin-2-yl]-1-methyl-ethyl] 4-methylpiperazine-1-carboxylate]	2 (≈ 3.57 µM)	8 (≈ 14.3 µM)
CCNC(=O)Nc1nc2cc(-c3cnc(C(C)O)nc3)cc(-c3cc(O)ccn3)c2s1 (stereo not shown) [Compound 90, 1-ethyl-3-[5-[2-(1-hydroxyethyl)pyrimidin-5-yl]-7-(4-hydroxy-2-pyridyl)-1,3-benzothiazol-2-yl]urea]	2 (≈ 4.58 µM)	16 (≈ 36.7 µM)
CCNC(=O)Nc1nc2cc(-c3cnc(C(C)(C)O)nc3)cc(-c3nccc(NCCN4CCOCC4)n3)c2s1 [Compound 91, 1-ethyl-3-[5-[2-(1-hydroxy-1-methyl-ethyl)pyrimidin-5-yl]-7-[4-(2-morpholinoethylamino)pyrimidin-2-yl]-1,3-benzothiazol-2-yl]urea]	≤ 1	2 (≈ 3.55 µM)
CCNC(=O)Nc1nc2cc(-c3cnc(C(C)O)nc3)cc(-c3nccc(N4CC(OC)C4)n3)c2s1 (stereo not shown) [Compound 93, 1-ethyl-3-[5-[2-(1-hydroxyethyl)pyrimidin-5-yl]-7-[4-(3-methoxyazetidin-1-yl)pyrimidin-2-yl]-1,3-benzothiazol-2-yl]urea]	≤ 1	≤ 1
CCNC(=O)Nc1nc2cc(-c3cnc(C(C)O)nc3)cc(-c3nccc(N4CCOCC4)n3)c2s1 (stereo not shown) [Compound 94, 1-ethyl-3-[5-[2-(1-hydroxyethyl)pyrimidin-5-yl]-7-(4-morpholinopyrimidin-2-yl)-1,3-benzothiazol-2-yl]urea]	≤ 1	≤ 1
CCNC(=O)Nc1nc2cc(-c3cnc(C(C)(C)O)nc3)cc(-c3nccc(N4CCC(C)(C(=O)O)CC4)n3)c2s1 [Compound 97, 1-[2-[2-(ethylcarbamoylamino)-5-[2-(1-hydroxy-1-methyl-ethyl)pyrimidin-5-yl]-1,3-benzothiazol-7-yl]pyrimidin-4-yl]-4-methyl-piperidine-4-carboxylic acid]	≤ 1	4 (≈ 6.94 µM)

Reference: patent publication US20170260178A1 (SPERO GYRASE, INC., priority 2012, published 2017)
